A word on the IC50: it is the concentration that gives 50% inhibition.

The subject of the first assay is Human primary T cells. In words: IL-2 ELISA, human primary T cell, anti-CD3+CD28+ (whole cell assay). Type of assay: cell-based. The note with it: Homo sapiens, T-cell, 24 h, human primary T cells stimulated with anti-CD3 + anti-CD28, 24 hours. Summed up: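 IL-2 secreted over 24 h at 37° C was quantified by ELISA after plate-bound αCD3 (1 μg/ml) and αCD28 (5 μg/ml) stimulation, or PMA (0.5 ng/ml) with ionomycin (0.1 μM) as counter-screen. Cells were IL-2-starved primary human T cells, expanded from volunteer PBMC and exposed to compound for 1 hr beforehand.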
Background: ELISA stands for enzyme-linked immunosorbent assay.
With `CC1(C)CC(Nc2nc(Nc3cc(OCCn4cncn4)cc(C(F)(F)F)c3)ncc2F)CC(C)(C)N1` [Compound I-28, N2-(3-(2-(1H-1,2,4-triazol-1-yl)ethoxy)-5-(trifluoromethyl)phenyl)-5-fluoro-N4-(2,2,6,6-tetramethylpiperidin-4-yl)pyrimidine-2,4-diamine], the IC50 lay in the range of 0.5 to 1 µM.

As for `CN1C(C)(C)CC(Nc2nc(Nc3ccc(OCCn4ccnn4)c(OC(F)F)c3)ncc2F)CC1(C)C` [Compound I-26, N2-(4-(2-(1H-1,2,3-triazol-1-yl)ethoxy)-3-(difluoromethoxy)phenyl)-5-fluoro-N4-(1,2,2,6,6-pentamethylpiperidin-4-yl)pyrimidine-2,4-diamine], the half-inhibitory concentration (IC50) lay in the range of 0.25 to 0.5 µM.

Turning to `Cn1nnnc1-c1cc(Nc2ncc(F)c(NC3CC(C)(C)NC(C)(C)C3)n2)cc(C(F)(F)F)c1` [III-140, 5-fluoro-N2-(3-(1-methyl-1H-tetrazol-5-yl)-5-(trifluoromethyl)phenyl)-N4-(2,2,6,6-tetramethylpiperidin-4-yl)pyrimidine-2,4-diamine], the half-maximal inhibitory concentration (IC50) is < 0.25 µM.

Regarding `[2H]C([2H])([2H])N1C(C)(C)CC(Nc2nc(Nc3ccc(OC4CCN(C(C)C)CC4F)c(OC(F)F)c3)ncc2F)CC1(C)C` (stereo not shown) [III-112, N2-(3-(difluoromethoxy)-4-(3-fluoro-1-isopropylpiperidin-4-yloxy)phenyl)-5-fluoro-N4-(1-trideuteromethyl-2,2,6,6-tetramethylpiperidin-4-yl)pyrimidine-2,4-diamine], the IC50 fell in the range of 0.25 to 0.5 µM.

For the compound `CC1(C)CC(Nc2nc(Nc3cccc(-n4cncn4)c3)ncc2F)CC(C)(C)N1` [Compound I-19, N2-(3-(1H-1,2,4-triazol-1-yl)phenyl)-5-fluoro-N4-(2,2,6,6-tetramethylpiperidin-4-yl)pyrimidine-2,4-diamine], the IC50 lay in the range of 0.5 to 1 µM.

`CC1(C)CC(Nc2nc(Nc3ccc4c(c3)OCC(CN3CCOCC3)O4)ncc2F)CC(C)(C)N1` (stereo not shown) [II-8, 5-fluoro-N2-(2,3-dihydro-2-(morpholinomethyl)benzo[b][1,4]dioxin-6-yl)-N4-(2,2,6,6-tetramethylpiperidin-4-yl)pyrimidine-2,4-diamine]: the IC50 was > 1 µM.

With `CCNC(=O)N1CCCC(Oc2ccc(Nc3ncc(F)c(NC4CC(C)(C)NC(C)(C)C4)n3)cc2OC(F)F)CC1` (stereo not shown) [III-88, 4-(2-(difluoromethoxy)-4-(5-fluoro-4-(2,2,6,6-tetramethylpiperidin-4-ylamino)pyrimidin-2-ylamino)phenoxy)-N-ethylazepane-1-carboxamide], the IC50 was > 1 µM.

On to `CC(C)N1CCC(Oc2ccc(Nc3ncc(F)c(NC4CC(C)(C)N(C)C(C)(C)C4)n3)cc2Cl)CC1` [III-95, N2-(3-chloro-4-(1-isopropylpiperidin-4-yloxy)phenyl)-5-fluoro-N4-(1,2,2,6,6-pentamethylpiperidin-4-yl)pyrimidine-2,4-diamine], for which the IC50 was < 0.25 µM.

For `CN1C(C)(C)CC(Nc2nc(Nc3ccc(OC4CCN(S(C)(=O)=O)CC4)c(F)c3)ncc2F)CC1(C)C` [III-14, 5-fluoro-N2-(3-fluoro-4-(1-(methylsulfonyl)piperidin-4-yloxy)phenyl)-N4-(1,2,2,6,6-pentamethylpiperidin-4-yl)pyrimidine-2,4-diamine], the IC50 was > 1 µM.

Regarding `CC1(C)CC(Nc2nc(Nc3ccc(Oc4cccnc4)c(C(F)(F)F)c3)ncc2F)CC(C)(C)N1` [Compound I-59, 5-fluoro-N2-(3-(trifluoromethyl)-4-(pyridin-3-yloxy)phenyl)-N4-(2,2,6,6-tetramethylpiperidin-4-yl)pyrimidine-2,4-diamine], the IC50 was > 1 µM.

With `CN1C(C)(C)CC(Nc2nc(Nc3ccc(F)c(-c4nnnn4C)c3)ncc2F)CC1(C)C` [III-121, 5-fluoro-N2-(4-fluoro-3-(1-methyl-1H-tetrazol-5-yl)phenyl)-N4-(1,2,2,6,6-pentamethylpiperidin-4-yl)pyrimidine-2,4-diamine], the IC50 was < 0.25 µM.

In the case of `CCNC(=O)N1CCC(Oc2ccc(Nc3ncc(F)c(NC4CC(C)(C)NC(C)(C)C4)n3)cc2F)CC1` [III-17, N-ethyl-4-(2-fluoro-4-(5-fluoro-4-(2,2,6,6-tetramethylpiperidin-4-ylamino)pyrimidin-2-ylamino)phenoxy)piperidine-1-carboxamide], the IC50 is > 1 µM.

Take `CN1C(C)(C)CC(Nc2nc(Nc3ccc(Oc4cccnc4)c(OC(F)F)c3)ncc2C#N)CC1(C)C` [Compound I-52, 4-(1,2,2,6,6-pentamethylpiperidin-4-ylamino)-2-(3-(difluoromethoxy)-4-(pyridin-3-yloxy)phenylamino)pyrimidine-5-carbonitrile]: the IC50 was < 0.25 µM.

`CC1(C)CC(Nc2nc(Nc3cnc(OCCN4CCCC4=O)c(OC(F)F)c3)ncc2F)CC(C)(C)N1` [Compound I-141, 1-(2-(3-(difluoromethoxy)-5-(5-fluoro-4-(2,2,6,6-tetramethylpiperidin-4-ylamino)pyrimidin-2-ylamino)pyridin-2-yloxy)ethyl)pyrrolidin-2-one]: the IC50 is > 1 µM.

On to `CC(C)N1CC[C@H](Oc2ccc(Nc3ncc(F)c(NC4CC(C)(C)NC(C)(C)C4)n3)cc2OC(F)F)C1` [Compound I-148, N2-(4-((S)-1-isopropylpyrrolidin-3-yloxy)-3-(difluoromethoxy)phenyl)-5-fluoro-N4-(2,2,6,6-tetramethylpiperidin-4-yl)pyrimidine-2,4-diamine], for which the IC50 was in the range of 0.25 to 0.5 µM.

For `Cc1nnnn1-c1cc(Nc2ncc(F)c(NC3CC(C)(C)NC(C)(C)C3)n2)ccc1OC(F)(F)F` [Compound I-21, 5-fluoro-N2-(3-(5-methyl-1H-tetrazol-1-yl)-4-(trifluoromethoxy)phenyl)-N4-(2,2,6,6-tetramethylpiperidin-4-yl)pyrimidine-2,4-diamine], the IC50 is < 0.25 µM.

Regarding `CC(C)Oc1ccc(Nc2ncc(F)c(NC3CC(C)(C)N(C)C(C)(C)C3)n2)cc1-c1nnnn1C` [III-123, 5-fluoro-N2-(4-isopropoxy-3-(1-methyl-1H-tetrazol-5-yl)phenyl)-N4-(1,2,2,6,6-pentamethylpiperidin-4-yl)pyrimidine-2,4-diamine], the IC50 is < 0.25 µM.

On to `CC(C)Oc1ncc(Nc2ncc(C#N)c(NC3CC(C)(C)NC(C)(C)C3)n2)cc1-c1nnnn1C1CC1` [Compound I-140, 2-(5-(1-cyclopropyl-1H-tetrazol-5-yl)-6-isopropoxypyridin-3-ylamino)-4-(2,2,6,6-tetramethylpiperidin-4-ylamino)pyrimidine-5-carbonitrile], for which the IC50 fell in the range of 0.25 to 0.5 µM.

`CN1C(C)(C)CC(Nc2nc(Nc3ccc(OC4CCN(CCO)CC4)c(OC(F)F)c3)ncc2F)CC1(C)C` [III-37, 2-(4-(2-(Difluoromethoxy)-4-(5-fluoro-4-(1,2,2,6,6-pentamethylpiperidin-4-ylamino)pyrimidin-2-ylamino)phenoxy)piperidin-1-yl)ethanol]: the IC50 was < 0.25 µM.

As for `CC(=O)N1CCCC(Oc2ccc(Nc3ncc(F)c(NC4CC(C)(C)N(C)C(C)(C)C4)n3)cc2OC(F)F)CC1` (stereo not shown) [III-43, 1-(4-(2-(difluoromethoxy)-4-(5-fluoro-4-(1,2,2,6,6-pentamethylpiperidin-4-ylamino)pyrimidin-2-ylamino)phenoxy)azepan-1-yl)ethanone], the IC50 was < 0.25 µM.

In the case of `CC(=O)N1CCC(Oc2ccc(Nc3ncc(F)c(NC4CC(C)(C)N(C)C(C)(C)C4)n3)cc2OC(F)F)CC1` [III-45, 1-(4-(2-(difluoromethoxy)-4-(5-fluoro-4-(1,2,2,6,6-pentamethylpiperidin-4-ylamino)pyrimidin-2-ylamino)phenoxy)piperidin-1-yl)ethanone], the IC50 fell in the range of 0.25 to 0.5 µM.

With `CC(C)N1CCC(Oc2ccc(Nc3ncc(F)c(NC4CC(C)(C)NC(C)(C)C4)n3)cc2OC(F)F)CC1` [Compound I-104, N2-(4-(1-isopropylpiperidin-4-yloxy)-3-(difluoromethoxy)phenyl)-5-fluoro-N4-(2,2,6,6-tetramethylpiperidin-4-yl)pyrimidine-2,4-diamine], the IC50 is < 0.25 µM.

Take `CC1(C)CC(Nc2nc(Nc3cc(OCCn4ccnn4)cc(C(F)(F)F)c3)ncc2F)CC(C)(C)N1` [Compound I-32, N2-(3-(2-(1H-1,2,3-triazol-1-yl)ethoxy)-5-(trifluoromethyl)phenyl)-5-fluoro-N4-(2,2,6,6-tetramethylpiperidin-4-yl)pyrimidine-2,4-diamine]: the IC50 was 0.5 to 1 µM.

As to `CN1C(C)(C)CC(Nc2nc(Nc3cc(F)c(OC(C)(C)CCN4CCCC4)c(F)c3)ncc2F)CC1(C)C` [III-49, N2-(3,5-difluoro-4-(2-methyl-4-(pyrrolidin-1-yl)butan-2-yloxy)phenyl)-5-fluoro-N4-(1,2,2,6,6-pentamethylpiperidin-4-yl)pyrimidine-2,4-diamine], the IC50 was > 1 µM.

For the compound `CN1C(C)(C)CC(Nc2nc(Nc3ccc4c(c3)OCC(C(=O)N3CCCCC3)O4)ncc2F)CC1(C)C` (stereo not shown) [II-1, (6-(4-(1,2,2,6,6-pentamethylpiperidin-4-ylamino)-5-fluoropyrimidin-2-ylamino)-2,3-dihydrobenzo[b][1,4]dioxin-2-yl)(piperidin-1-yl)methanone], the IC50 is > 1 µM.

The assay is the same for the next values; noted with them: human primary T cells stimulated with anti-CD3 + anti-CD28, 24 hours.
With `CC1(C)CC(Nc2nc(Nc3cccc(-n4nnnc4SCC(F)(F)F)c3)ncc2C(N)=O)CC(C)(C)N1` [Compound I-72, 5-aminocarbonyl-N4-(2,2,6,6-tetramethylpiperidin-4-yl)-N2-{3-[5-(2,2,2-trifluoroethyl)thio]-1H-tetrazol-1-yl}phenyl-2,4-pyrimidinediamine], the half-inhibitory concentration (IC50) was > 1 µM.

Turning to `CC1(C)CC(Nc2nc(Nc3cccc(-c4nnnn4C4CC4)c3)ncc2C#N)CC(C)(C)N1` [Compound I-95, 5-Cyano-N2-{3-[1-N-cyclopropyl-(tetrazol-5-yl)]}phenyl-N4-(2,2,6,6-tetramethylpiperidin-4-yl)-2,4-pyrimidinediamine], the 50% inhibitory concentration (IC50) was 0.25 to 0.5 µM.

In the case of `CCCc1nnnn1-c1cc(Nc2ncc(C#N)c(NC3CC(C)(C)NC(C)(C)C3)n2)ccc1OC` [Compound I-81, 5-cyano-N2-[4-methoxy-3-(5-propyl-1H-tetrazol-1-yl)]phenyl-N4-(2,2,6,6-tetramethylpiperidin-4-yl)-2,4-pyrimidinediamine], the IC50 was 0.25 to 0.5 µM.

The values above are taken from patent US9149475B2, “Protein kinase C inhibitors and uses thereof” (Rigel Pharmaceuticals, Inc., priority 2009, dated 2015).
